According to US20060210568A1, “Methods and compositions for cancer treatment” (priority 2003, published 2006):

Experiments:
[1] = system: ADRP overexpressing cells (MCF7-C4); assay: proliferation assay, ADRP overexpressing MCF-7 cells; type: cell-based, human; conditions: estradiol 10^−9 M, insulin 10 microgramsg/ml, EGF 25 ng/ml in medium
Description: The vector used to over-express ADRP in MCF-7 cells is the ADRP-pcDNA3 vector described in Gao and Serrero, 1999. The G418 resistance gene was used as selectable marker. MCF-7 cells were transfected with the ADRP-pcDNA3 plasmid, using the lipofectamine method. Specifically, MCF-7 cells (WT) were plated onto 60-mm dish at the concentration of 2×10^5 cell per plate in 5% fetal bovine serum (FBS) in DMEM/F12 (1:1 mixture of Dulbecco's modified Eagle's medium and Ham' nutrient F12 medium) overnight before transfection. Cells were washed once with serum-free DMEM/F12 (without antibiotic). The lipofectamine method was used for the transfection. Specifically, 2 μg mouse ADRP pcDNA3 construct was used. Transfection was carried on according to manufacturer's recommendations, with 15 μl of lipofectamine and 5 hours of incubation. After transfection, the medium was replaced with 5% FBS DMEM/F12 and the cells were incubated overnight. G418 at the concentration of 800 μg/ml was added the day after for selection. Cells were selected with this medium for 3 weeks. Six clones were isolated and subjected to RT-PCR to determine the existence of the transfection construct. For proliferation assay, the cells were seeded at a density of 5×10^4 cells in phenol red-free α-MEM (PFME) supplemented with 5% of charcoal extracted fetal bovine serum (CHX-FBS) in 6-well culture plates (Costar). Cells were treated with 1 nM 17β-estradiol alone. Control cells were treated with vehicle alone (0.01% DMSO). Cell numbers were counted by hemacytometer every two days. Medium was changed at day 4. Each time point was performed in triplicate. Specifically, the medium contained estradiol (E2 at 10^−9 M), insulin (10 microgramsg/ml) and epidermal growth factor (EGF at 25 ng/ml).

EV MCF-7 cells = assay: proliferation assay, EV MCF-7 control cells; type: cell-based, human; conditions: estradiol 10^−9 M, insulin 10 microgramsg/ml, EGF 25 ng/ml in medium
Description: For proliferation assay, the cells were seeded at a density of 5×10^4 cells in phenol red-free α-MEM (PFME) supplemented with 5% of charcoal extracted fetal bovine serum (CHX-FBS) in 6-well culture plates (Costar). Cells were treated with 1 nM 17β-estradiol alone. Control cells were treated with vehicle alone (0.01% DMSO). Cell numbers were counted by hemacytometer every two days. Medium was changed at day 4. Each time point was performed in triplicate. Specifically, the medium contained estradiol (E2 at 10^−9 M), insulin (10 microgramsg/ml) and epidermal growth factor (EGF at 25 ng/ml).

[2] = system: ADRP expression in MCF-7 cells; assay: ADRP expression in MCF-7 cells (RT-PCR); type: cell-based, human; conditions: for increase of ADRP level over the endogenous level: treatment of cells, depends on length of treatment
Excerpt: Ciglitazone is known to bind and activate the nuclear receptor PPAR gamma, which has been shown in MCF-7 to stimulate expression of beta casein (Mueller et al., 1998).
It is known that estradiol plays a dual role in mammary epithelial cells as a stimulator of proliferation and also as a differentiation factor at different times of the developmental stages of mammary gland development (Kumar et al, 2000).
A specific siRNA against human ADRP mRNA (hADRP-siRNA) was designed using the sequence between +225 to +244 of human ADRP as a target. A control siRNA was designed using a portion of the green fluorescence protein gene. Twenty-one-oligonucleotide RNA for hADRP (rArUrU rGrCrA rGrUrU rGrCrC rArArU rArCrC rUTT and rArGrG rUrArU rUrGrG rCrArA rCrUrG rCrArA rUTT) with 3′dTdT overhangs, and for GFP (rGrGrC rUrArC rGrUrC rCrArG rGrArG rCrGrC rArCrC and rUrGrC rGrCrU rCrCrU rGrGrA rCrGrU rArGrC rCrUrU) were synthesized (Integrated DNA Technologies, Inc., Coralville, Iowa). Transfection of siRNA duplex was performed in MCF-7 cells using LipofectAMINE 2000 reagents as described by the manufacturer (Invitrogen, Carlsbad, Calif.). MCF-7 EV grown to 50% confluency in 6-well plates were transfected with 100 pmole of siRNA per well in serum free-DMEM/F12. After 5 h, the medium was replaced with DMEM/F12 containing 5% FBS. Control MCF-7 cells were treated with GFP siRNA. The cells were then treated with 50 μM (50 micromolars) ciglitazone. After 48 h of incubation, RNA samples were collected by Trizol method to measure human ADRP expression and beta casein expression by RT-PCR as described above.

[3] = system: ADRP expression in adipocytes; conditions: cited from earlier work

Molecule	proliferation of ADRP overexpressing cells [1]	proliferation of EV MCF-7 cells (control) (EV MCF-7 cells)	ADRP expression ([2]; MCF-7 cells, FIG. 7)	increase of ADRP level over the endogenous level [2]	ADRP expression in adipocytes [3]
insulin: hormone known to stimulate the proliferation of mammary epithelial cells	no effect	stimulated the proliferation			
epidermal growth factor: growth factor known to stimulate the proliferation of mammary epithelial cells	no effect	stimulated the proliferation			
C[C@]12CC[C@@H]3c4ccc(O)cc4CC[C@H]3[C@@H]1CC[C@@H]2O [estradiol, 17β-estradiol, reference compound]	no effect	stimulated the proliferation	stimulates ADRP expression	2-3 fold	
CC(C)Cc1ccc(C(C)C(=O)O)cc1 (centres unmarked) [ibuprofen]					stimulated
COc1ccc2c(c1)c(CC(=O)O)c(C)n2C(=O)c1ccc(Cl)cc1 [indomethacin]					stimulated
CC1(COc2ccc(CC3SC(=O)NC3=O)cc2)CCCCC1 (centres unmarked) [ciglitazone]				over 10 fold	
